The nature of the data set: Solubility in water. In kind it is physicochemical.

The structures appear in SMILES notation.

As to `O=C(O)c1ccc2cc(C(=O)O)ccc2c1` [2,6-naphthalenedicarboxylic acid], the Solubility in water was 0.03 g/100 g-water (Temperature 150° C.) and 0.21 g/100 g-water (Temperature 200° C.).
Taken in the same sequence, the figures for `O=C(O)c1ccc(C(=O)O)cc1` [Terephthalic acid] were 0.25 g/100 g-water and 1.7 g/100 g-water.
Taken in the same sequence, the figures for `O=C(O)c1cccc(C(=O)O)c1` [Isophthalic acid] were 2.7 g/100 g-water and 24.2 g/100 g-water.
Taken in the same sequence, the figures for `O=C(O)c1ccc(-c2ccc(C(=O)O)cc2)cc1` [4,4′-biphenyldicarboxylic acid] were 0.01 g/100 g-water and 0.04 g/100 g-water.

The record behind these values is patent US20020115884A1, “Process for producing a hydrogenation product of an aromatic carboxylic acid” (priority 2000, published 2002).
